Source: patent US20240400560A1, “BICYCLIC HETEROCYCLIC DERIVATIVE HAVING VIRAL GROWTH INHIBITORY ACTIVITY AND PHARMACEUTICAL COMPOSITION CONTAINING SAME” (Shionogi & Co., Ltd., priority 2021, published 2024)
Read-outs that look alike come from different tables or passages of the source.

Key:
SARS-CoV-2 = experiment: Inhibitory activity of cytopathic effect (CPE) in HEK293T/ACE2-TMPRSS2 cells; format: cell-based; details: Severe acute respiratory syndrome coronavirus 2, HEK-293T, 72 h
SARS-CoV-2 3CL protease = SARS-CoV-2 3CL protease (Severe acute respiratory syndrome coronavirus 2, UniProt P0DTD1); experiment: Inhibitory activity test against SARS-CoV-2 3CL proteases; format: biochemical
[1] = HEK293T/ACE2-TMPRSS2 cells, cultured 3 days, CellTiter-Glo 2.0 luminescence, read-out: EC50 (50% SARS-CoV-2 infected cell death inhibitory concentration)
[2] = read-out: IC50 (50% SARS-CoV-2 3CL protease inhibitory concentration)
[3] = 50% SARS-CoV-2 infected cell death inhibitory concentration, HEK293T/ACE2-TMPRSS2 cells, CellTiter-Glo 2.0 after 3 days culture, read-out: EC50
[4] = read-out: EC50 (50% SARS-CoV-2 infected cell death inhibitory concentration)
[5] = IC50 (50% SARS-CoV-2 3CL protease inhibitory concentration)

Row | SMILES | EC50 (SARS-CoV-2; [1]) | IC50 (SARS-CoV-2 3CL protease; [2]) | also measured
1 | [2H]C([2H])([2H])O[C@@H]1CCN(c2cc3c(c(OC)n2)c(=O)n(-c2cncc(OC(F)F)c2)c(=O)n3-c2ccc(F)c(Cl)c2)C1 [Compound I-0971] | < 100 nM | < 100 nM | –
2 | Cn1cnc(Cn2c(=O)c3c4nccnc4c(-c4cc(C#N)ccc4Cl)cc3n(Cc3cc(F)c(F)c(F)c3)c2=O)n1 [Compound I-0934] | < 100 nM | < 100 nM | –
3 | COc1nc(-c2cc(C#N)ccc2Cl)cc2c1c(=O)n(-c1cnc3ccc(F)cn13)c(=O)n2Cc1cc(F)c(F)c(F)c1 [Compound I-0680] | < 100 nM | < 100 nM | –
4 | COc1cc(-n2c(=O)n(Cc3ncn(C)n3)c(=O)c3c(OC)nc(N4CC[C@@H](F)C4)cc32)cc(Cl)c1F [Compound I-0804] | < 100 nM | < 100 nM | –
5 | COc1nc2c(=O)n(Cc3ncn(C)n3)c(=O)n(Cc3cc(C#N)ccc3C)c2cc1-c1cc(C#N)ccc1Cl [Compound I-0549] | 100 to 1000 nM | < 100 nM | –
6 | COc1cc(-c2cc([C@H](C)O)ccc2Cl)cc2c1c(=O)n(Cc1ncn(C)n1)c(=O)n2Cc1cc(F)c(F)c(F)c1 [Compound I-0840] | < 100 nM | < 100 nM | –
7 | COc1nc2c(=O)n(Cc3ncn(C)n3)c(=O)n(Cc3cc(F)c(F)c(Cl)c3)c2cc1-c1ncc(F)cc1Cl [Compound I-0578] | < 100 nM | < 100 nM | –
8 | COc1nc(NC2CCC2)cc2c1c(=O)n(-c1cnc3cc(F)ccn13)c(=O)n2-c1ccc(F)c(Cl)c1 [Compound I-1053] | < 100 nM | < 100 nM | –
9 | COc1nc(N2C[C@@H]3[C@H](C2)C3(F)F)cc2c1c(=O)n(-c1cnc3cc(F)ccn13)c(=O)n2-c1ccc(F)c(Cl)c1 [Compound I-0759] | < 100 nM | < 100 nM | –
10 | COc1nc(N2CCOCC2)cc2c1c(=O)n(-c1cncc(Cl)c1)c(=O)n2-c1ccc(F)c(Cl)c1 [Compound I-1013] | < 100 nM | < 100 nM | –
11 | Cn1cnc(Cn2c(=O)c3c4nccnc4c(-c4cc(C(C)(C)O)c(F)cc4Cl)cc3n(Cc3cc(F)c(F)c(Cl)c3)c2=O)n1 [Compound I-0815] | < 100 nM | < 100 nM | –
12 | COc1nc(N2CCC(C)(O)C2)cc2c1c(=O)n(-c1cnc3cc(F)ccn13)c(=O)n2-c1ccc(F)c(Cl)c1 (centres unmarked) [Compound I-1043] | < 100 nM | < 100 nM | –
13 | Cn1cnc(Cn2c(=O)c3c4nccnc4c(N4CC(F)(F)C(F)(F)C4)cc3n(Cc3cc(F)c(F)c(Cl)c3)c2=O)n1 [Compound I-0570] | – | 26 nM | EC50 (SARS-CoV-2; [3]): 24.7 nM
14 | COc1nc(N2CCC(N(C)C)C2)cc2c1c(=O)n(-c1cnc3cc(F)ccn13)c(=O)n2-c1ccc(F)c(Cl)c1 (centres unmarked) [Compound I-1055] | < 100 nM | < 100 nM | –
15 | COC[C@@H]1CCN(c2cc3c(c(OC)n2)c(=O)n(-c2cnc4cc(F)ccn24)c(=O)n3-c2ccc(F)c(Cl)c2)C1 [Compound I-1033] | < 100 nM | < 100 nM | –
16 | COc1nc(N2CCC(C)(O)C2)cc2c1c(=O)n(-c1cncc(Cl)c1)c(=O)n2-c1ccc(F)c(Cl)c1 (centres unmarked) [Compound I-1010] | < 100 nM | < 100 nM | –
17 | Cn1cnc(Cn2c(=O)c3c(cc(-c4cc(C#N)ccc4Cl)n4nnnc34)n(Cc3cc(F)c(F)c(F)c3)c2=O)n1 [Compound I-0639] | 100 to 1000 nM | < 100 nM | –
18 | COc1nc(N2CC[C@@H](C#N)C2)cc2c1c(=O)n(-c1cnc3cc(F)ccn13)c(=O)n2Cc1cc(F)c(F)c(Cl)c1 [Compound I-0736] | – | 12 nM | EC50 (SARS-CoV-2; [3]): 20.1 nM
19 | COc1nc(N(C)C)cc2c1c(=O)n(-c1cnc3cc(F)ccn13)c(=O)n2-c1ccc(F)c(Cl)c1 [Compound I-0986] | – | 6.5 nM | EC50 (SARS-CoV-2; [3]): 7.1 nM
20 | Cl.[2H]C([2H])([2H])O[C@@H]1CCN(c2cc3c(c(OC)n2)c(=O)n(-c2cnc4cc(F)c(F)cn24)c(=O)n3-c2ccc(F)c(Cl)c2)C1 [Compound I-0962] | < 100 nM | < 100 nM | –
21 | Cn1cnc(Cn2c(=O)c3c4c(c(-c5cc(C(C)(C)O)ccc5Cl)cc3n(Cc3cc(F)c(F)c(Cl)c3)c2=O)CCO4)n1 [Compound I-0812] | – | 1.1 nM | EC50 (SARS-CoV-2; [3]): 15.8 nM
22 | COc1nc(N2CC[C@@H](C#N)C2)cc2c1c(=O)n(-c1cnc3cc(F)ccn13)c(=O)n2-c1ccc(F)c(F)c1 [Compound I-0959] | < 100 nM | < 100 nM | –
23 | COc1nc(N2[C@@H]3CC[C@H]2CNC3)cc2c1c(=O)n(-c1cnc3cc(F)ccn13)c(=O)n2Cc1cc(F)c(F)c(F)c1 [Compound I-0682] | – | – | EC50 (SARS-CoV-2; [4]): < 100 nM; IC50 (SARS-CoV-2 3CL protease; [5]): < 100 nM
24 | COc1nc(N2CC[C@@H](F)C2)cc2c1c(=O)n(Cc1ncn(C)n1)c(=O)n2-c1cc(C)c(F)c(Cl)c1 [Compound I-0805] | < 100 nM | < 100 nM | –
25 | COc1nc(N2[C@@H]3CC[C@H]2CNC3)cc2c1c(=O)n(-c1cnc3cc(Cl)ccn13)c(=O)n2Cc1cc(F)c(F)c(F)c1 [Compound I-0683] | – | – | EC50 (SARS-CoV-2): 45.4 nM; IC50 (SARS-CoV-2 3CL protease; [5]): 9.9 nM

Row | SMILES | EC50 (SARS-CoV-2; [1]) | IC50 (SARS-CoV-2 3CL protease; [2]) | also measured
26 | COc1nc(NC2CC2)cc2c1c(=O)n(-c1cnc3cc(F)ccn13)c(=O)n2-c1ccc(F)c(Cl)c1 [Compound I-1029] | < 100 nM | < 100 nM | –
27 | COc1nc(N2CCC(F)(F)C2)cc2c1c(=O)n(-c1cnc3cc(F)c(Cl)cn13)c(=O)n2-c1ccc(F)c(Cl)c1 [Compound I-0655] | < 100 nM | < 100 nM | –
28 | COc1nc(NC2CCCC2)cc2c1c(=O)n(-c1cnc3cc(F)ccn13)c(=O)n2-c1ccc(F)c(Cl)c1 [Compound I-1046] | < 100 nM | – | IC50 (SARS-CoV-2 3CL protease; [5]): < 100 nM
29 | COc1nc(N2CC[C@@H](CO)C2)cc2c1c(=O)n(-c1cnc3cc(F)ccn13)c(=O)n2-c1ccc(F)c(Cl)c1 [Compound I-0750] | – | 6.1 nM | EC50 (SARS-CoV-2; [3]): 25.9 nM
30 | COc1nc(N2CC[C@@H](C(=O)O)C2)cc2c1c(=O)n(-c1cnc3cc(F)ccn13)c(=O)n2-c1ccc(F)c(Cl)c1 [Compound I-0625] | 100 to 1000 nM | < 100 nM | –
31 | COc1nc(N2[C@@H]3CC[C@H]2CNC3)cc2c1c(=O)n(-c1cnc3ccc(Cl)cn13)c(=O)n2-c1ccc(F)c(Cl)c1 [Compound I-0806] | – | – | EC50 (SARS-CoV-2): 25.1 nM; IC50 (SARS-CoV-2 3CL protease; [5]): 3.9 nM
32 | [2H]C([2H])([2H])O[C@@H]1CCN(c2cc3c(c(OC)n2)c(=O)n(-c2cnc4cc(F)ccn24)c(=O)n3-c2cc(Cl)c(F)c(OC)c2)C1 [Compound I-0764] | < 100 nM | < 100 nM | –
33 | COc1nc(N(C)C(C)C)cc2c1c(=O)n(-c1cnc3cc(F)ccn13)c(=O)n2-c1ccc(F)c(Cl)c1 [Compound I-1034] | < 100 nM | < 100 nM | –
34 | Cn1cnc(Cn2c(=O)c3c4c(c(-c5cnccc5Cl)cc3n(Cc3cc(F)c(F)c(Cl)c3)c2=O)CCO4)n1 [Compound I-0563] | < 100 nM | < 100 nM | –
35 | CC(C)=Cc1cc2c(c(=O)n(Cc3ncn(C)n3)c(=O)n2Cc2cc(F)c(F)c(Cl)c2)c2nccnc12 [Compound I-0572] | – | 37 nM | EC50 (SARS-CoV-2; [3]): 28.3 nM
36 | COc1nc2c(=O)n(Cc3ncn(C)n3)c(=O)n(Cc3cc(F)c(F)c(Cl)c3)c2cc1-c1cc(C(C)(C)O)c(F)cc1Cl [Compound I-0816] | < 100 nM | < 100 nM | –
37 | [2H]C([2H])([2H])O[C@@H]1CCN(c2cc3c(c(OC)n2)c(=O)n(-c2cncc(F)c2)c(=O)n3-c2ccc(F)c(Cl)c2)C1 [Compound I-0953] | < 100 nM | < 100 nM | –
38 | COc1nc(N2CCC(F)(F)C2)cc2c1c(=O)n(-c1cncc(C)n1)c(=O)n2-c1ccc(F)c(Cl)c1 [Compound I-0997] | < 100 nM | < 100 nM | –
39 | COc1nc(N2CC[C@@H](C#N)C2)cc2c1c(=O)n(-c1cnc3cc(F)ccn13)c(=O)n2Cc1cc(F)c(F)c(F)c1 [Compound I-0732] | < 100 nM | < 100 nM | –
40 | COc1nc(N2[C@H]3CC[C@@H]2[C@@H](O)C3)cc2c1c(=O)n(Cc1ncn(C)n1)c(=O)n2Cc1cc(F)c(F)c(F)c1 [Compound I-0602] | – | – | EC50 (SARS-CoV-2; [4]): < 100 nM; IC50 (SARS-CoV-2 3CL protease; [5]): < 100 nM
41 | COc1nc(N2[C@@H]3CC[C@H]2CNC3)cc2c1c(=O)n(-c1cnc3ccccn13)c(=O)n2Cc1cc(F)c(F)c(F)c1 [Compound I-0646] | – | – | EC50 (SARS-CoV-2; [4]): < 100 nM; IC50 (SARS-CoV-2 3CL protease; [5]): < 100 nM
42 | C=C(C)c1cc2c(c(OC)n1)c(=O)n(-c1cnc3cc(F)ccn13)c(=O)n2-c1ccc(F)c(Cl)c1 [Compound I-1019] | – | 11 nM | EC50 (SARS-CoV-2; [3]): 570 nM
43 | COc1nc2cc(-c3cc(OC)c4c(=O)n(Cc5ncn(C)n5)c(=O)n(Cc5cc(F)c(F)c(Cl)c5)c4c3)c(Cl)cc2[nH]1 [Compound I-0858] | – | 2.4 nM | EC50 (SARS-CoV-2; [3]): 44.1 nM
44 | COc1nc(N2CC[C@@H](C#N)C2)cc2c1c(=O)n(-c1cncc(OCF)c1)c(=O)n2-c1ccc(F)c(F)c1 [Compound I-0980] | < 100 nM | < 100 nM | –
45 | COc1nc2c(=O)n(Cc3ncn(C)n3)c(=O)n(Cc3cc(F)c(F)c(Cl)c3)c2cc1-c1cc(C(C)(C)O)ccc1Cl [Compound I-0701] | – | 5 nM | EC50 (SARS-CoV-2; [3]): 16 nM
46 | COc1cc(-c2cc3nc(C(F)F)[nH]c3cc2Cl)cc2c1c(=O)n(Cc1ncn(C)n1)c(=O)n2Cc1cc(F)c(F)c(F)c1 [Compound I-0848] | 100 to 1000 nM | < 100 nM | –
47 | COc1nc(N2CC[C@@H](C#N)C2)cc2c1c(=O)n(-c1cncc(Cl)c1)c(=O)n2-c1ccc(F)c(F)c1 [Compound I-0949] | < 100 nM | < 100 nM | –
48 | COc1nc2c(=O)n(-c3cnc4cc(F)ccn34)c(=O)n(Cc3cc(Cl)c(F)cc3C)c2cc1-c1cc(C(C)(C)O)ccc1Cl [Compound I-0843] | – | 7.4 nM | EC50 (SARS-CoV-2; [3]): 72.3 nM
49 | COc1nc2c(=O)n(Cc3ncn(C)n3)c(=O)n(Cc3cc(Cl)c(F)cc3C)c2cc1-c1nc(C)ccc1Cl [Compound I-0581] | < 100 nM | < 100 nM | –
